These compounds were tested against T1, human sGC (Homo sapiens, UniProt Q02153) (assay: Measurement of sGC activating effect in CHO-K1 cells stably expressing human sGC and mouse CNGA2). Conditions: CHO-K1 cells expressing human sGC and mouse CNGA2, Fura2 calcium readout, 10 μmol/L ODQ in assay buffer.
T1 construct: expressed in transfected cells; host or cells: CHO-K1 cells (Chinese hamster ovary), stably co-expressing mouse CNGA2 as the calcium read-out channel
T1 sequence (Q02153 1-619): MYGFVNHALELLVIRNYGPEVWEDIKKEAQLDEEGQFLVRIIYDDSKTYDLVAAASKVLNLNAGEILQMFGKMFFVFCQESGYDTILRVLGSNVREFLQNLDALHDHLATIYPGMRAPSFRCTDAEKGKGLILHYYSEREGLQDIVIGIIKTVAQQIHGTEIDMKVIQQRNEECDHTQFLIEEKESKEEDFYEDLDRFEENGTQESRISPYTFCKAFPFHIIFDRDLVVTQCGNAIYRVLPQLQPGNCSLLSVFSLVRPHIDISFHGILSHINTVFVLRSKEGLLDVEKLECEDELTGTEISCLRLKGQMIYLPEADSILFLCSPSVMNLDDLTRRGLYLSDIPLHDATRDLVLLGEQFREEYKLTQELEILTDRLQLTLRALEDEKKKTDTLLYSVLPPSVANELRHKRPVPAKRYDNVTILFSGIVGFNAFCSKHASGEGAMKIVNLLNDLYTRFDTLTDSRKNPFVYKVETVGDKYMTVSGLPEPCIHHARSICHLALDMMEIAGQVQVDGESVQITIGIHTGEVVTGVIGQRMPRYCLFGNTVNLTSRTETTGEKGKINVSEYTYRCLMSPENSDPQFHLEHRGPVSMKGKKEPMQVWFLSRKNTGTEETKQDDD
T1 sequence (Q02108 1-690 partner): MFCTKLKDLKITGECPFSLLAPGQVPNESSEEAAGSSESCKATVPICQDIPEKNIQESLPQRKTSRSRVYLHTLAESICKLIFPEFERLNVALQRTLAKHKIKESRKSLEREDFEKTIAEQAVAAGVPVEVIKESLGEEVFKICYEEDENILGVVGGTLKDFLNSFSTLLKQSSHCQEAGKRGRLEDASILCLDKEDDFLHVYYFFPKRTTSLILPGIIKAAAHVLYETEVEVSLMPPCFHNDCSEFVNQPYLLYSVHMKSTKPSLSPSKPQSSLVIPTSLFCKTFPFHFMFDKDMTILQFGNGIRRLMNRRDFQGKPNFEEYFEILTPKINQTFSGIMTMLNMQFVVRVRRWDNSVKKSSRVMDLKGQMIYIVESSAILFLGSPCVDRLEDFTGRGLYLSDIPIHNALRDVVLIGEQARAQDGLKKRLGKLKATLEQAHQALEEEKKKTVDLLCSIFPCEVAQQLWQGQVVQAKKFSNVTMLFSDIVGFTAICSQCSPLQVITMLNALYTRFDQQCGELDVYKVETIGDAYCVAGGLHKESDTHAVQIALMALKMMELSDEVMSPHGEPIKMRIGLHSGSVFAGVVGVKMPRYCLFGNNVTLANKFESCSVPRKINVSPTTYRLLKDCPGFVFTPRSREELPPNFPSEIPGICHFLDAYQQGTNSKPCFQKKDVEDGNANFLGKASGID
Assay type: cell-based
Description: Chinese Hamster ovary cells (CHO-K1 cells) modified for stably expressing human sGC α subunit and β subunit, and a mouse cyclic nucleotide gated channel (CNGA2) were used in the test.
The CHO-K1 cells stably expressing human sGC and mouse CNGA2 were cultured at 37° C. in a F-12 medium supplemented with 10% (v/v) fetal bovine serum (FBS), penicillin (100 U/mL), streptomycin (100 μg/mL), G418 (250 μg/mL), and Zeocin (250 μg/mL). The cells were suspended in a culture medium, seeded in a 96 well plate, and cultured at 37° C. for 24 hours. The cells were washed with an assay buffer 1 (140 mmol/L of sodium chloride, 5 mmol/L of potassium chloride, 0.5 mmol/L of magnesium chloride, 0.01 mmol/L of calcium chloride, 10 mmol/L of glucose, 0.4 mmol/L of magnesium sulfate, 10 mmol/L of 4-(2-hydroxyethyl)piperazine-1-yl ethanesulfonic acid, 125 μmol/L of sulfinpyrazone, pH 7.4), and then an indicator solution in which Fura2-AM as a fluorescent Ca2+ indicator is dissolved in assay buffer 1 at a concentration of 5 μmol/L was added thereto, and cultured at 37° C. for 60 minutes. The culture medium was removed, the cells were washed with assay buffer 1, the test compound solution was added thereto, and cultured at room temperature for 10 minutes. The plate was mounted on a fluorescence microplate reader (FlexStation II, available from Molecular Devices) with setting of excitation wavelengths of 340 and 380 nm and a detection wavelength of 510 nm, an intracellular calcium concentration was measured as a fluorescent intensity ratio obtained from each excitation wavelength.
In this test, the solution of the test compound was prepared by dissolving each test compound in DMSO at a concentration of 10 mmol/L, and then diluting the solution with assay buffer 2 (140 mmol/L of sodium chloride, 5 mmol/L of potassium chloride, 0.5 mmol/L of magnesium chloride, 1 mmol/L of calcium chloride, 10 mmol/L of glucose, 0.4 mmol/L of magnesium sulfate, 10 mmol/L of 4-(2-hydroxyethyl)piperazine-1-yl ethanesulfonic acid, 125 μmol/L of sulfinpyrazone, 100 μmol/L of isobutylmethylxanthine, 10 μmol/L of 1H-[1,2,4]-oxadiazole [4,3-a]quinoxaline-1-on (hereinafter, referred to as ODQ), pH 7.4), in order to adjust the concentration of 10 μmol/L for testing. As a control solution, a DMSO diluted solution was used, instead of the test compound solution.
The activity of the test compound was calculated as an increase rate (%) of the sGC activity in the test compound solution relative to the sGC activity in the control solution, by dividing a fluorescent intensity ratio in adding the test compound by a fluorescent intensity ratio of the control solution, and subtracting the sGC activity in the control solution (100%) therefrom. An EC50 value was calculated from the activity of the test compound at concentrations of 0.0001, 0.001, 0.003, 0.01, 0.03, 0.1, 1, and 10 μmol/L, using a 4 parameter losgistic model from Assay Explorer (available from Dssault Systèmes BIOVIA).

Row | Structure (SMILES) | EC50
1 | N#Cc1cccc([C@H](CN(CCCCC(=O)O)Cc2ccc(C(=O)O)cc2)OCc2ccc(Oc3ccccc3)cc2)c1 [Comparative Compound 3, reference compound] | 7.01 nM
2 | O=C(O)CCCCN(Cc1ccc(C(=O)O)cc1)C[C@H](OCc1ccc(CCc2ccc(Cl)cc2)cc1)c1ccccc1 [Compound No. 6, (−)-4-([N-(4-carboxybutyl)-N-[(2R)-2-[4-[2-(4-chlorophenyl)ethyl]benzyloxy]-2-phenylethyl]amino]methyl)benzoic acid] | 3.14 nM
3 | O=C(O)CCCCN(CCc1ccccc1OCc1ccc(CCc2ccccc2)cc1)Cc1ccc(C(=O)O)cc1 [Comparative Compound 1, reference compound] | 8.84 nM
4 | O=C(O)CCCCN(CCc1ccccc1OCc1ccc(CCc2ccccc2)cc1)C1COc2cc(C(=O)O)ccc21 (stereo not shown) [Comparative Compound 2, reference compound] | 19.4 nM
5 | CC(C)(C)c1cc(CO[C@@H](CN(CCCCC(=O)O)Cc2ccc(C(=O)O)cc2)c2ccccc2)cc(C(C)(C)C)c1 [Comparative Compound 4, reference compound] | 0.46 nM
6 | O=C(O)CCCCN(Cc1ccc(C(=O)O)cc1)C[C@H](OCc1ccc(CCc2ccccc2)cc1)c1ccccc1 [Compound No. 14, (−)-4-([N-(4-carboxybutyl)-N-[(2R)-2-[4-(2-phenylethyl)benzyloxy]-2-phenylethyl]amino]methyl)benzoic acid] | 5.71 nM
7 | O=C(O)CCCCN(CCc1ccccc1OCc1cccc2c1CCCC2)[C@H]1CCCc2cc(C(=O)O)ccc21 [Compound No. 8, (+)-(5S)-5-[N-(4-carboxybutyl)-N-[2-[2-(5,6,7,8-tetrahydronaphthalene-1-ylmethoxy)phenyl]ethyl]amino]-5,6,7,8-tetrahydronaphthalene-2-carboxylic acid] | 6.62 nM

Reference: US10682323B2, “Therapeutic agent for glaucoma” (TOA EIYO LTD., priority 2016, dated 2020)
